From patent US12285399B2, “Composition comprising bornyl acetate or pharmaceutically acceptable salt thereof as active ingredient for prevention or treatment of stress-related disorder” (UNIVERSITY-INDUSTRY COOPERATION GROUP OF KYUNG HEE …, priority 2019, dated 2025)

Tests used:
Format in all cases: in vivo, C57BL/6NTac mice
CD11b protein = test: Western blot of CD11b protein in brain (hippocampus and amygdala) of CRS model; conditions: CRS+BA group
Protocol: In order to confirm the antidepressant efficacy of bornyl acetate on the animal model of stress depression, an animal model of depression induced by chronic restrained stress (CRS) was prepared. Specifically, the animal model, 8-week-old male C57BL/6NTac mice after birth (Narabiotechnology, Korea; weight 22-24 g) had been stabilized for 1 week. A 50 ml conical tube (SPL Life sciences, Pocheon, Korea) was punched to make a hole, thereby making a restraint frame. The mice were put in the frame and restrained for 2 hours every day for 14 days. After restraint, the mice were allowed to freely ingest water and food in the home cage. The hippocampus and amygdala of the brain were excised. They were added to 200 μl of a protein lysis buffer (10 mM Tris, 0.5 mM EDTA, 0.25 M sucrose), and proteins were isolated using a grinder. The isolated protein was quantified by the Bradford method (Bio-rad, USA) using bovine serum albumin (BSA, Sigma, USA), and then 25 μg of the protein was separated by 10% sodium dodecyl sulfate-polyacrylamide gel electrophoresis (SDS-PAGE) and transferred to polyvinylidene difluoride (PVDF) membrane (Gendepot, UK). PVDF membranes were blocked in 5% skimmed milk (BD, USA) for 1 hour. […] Identification and quantitative analysis of proteins were analyzed using an imaging device ChemiDoc XRS+ (Bio-Rad). […]

c-Fos = test: Immunohistochemical staining for c-Fos in brain of CRS model; conditions: hippocampus and amygdala, CRS+BA group, 100 mg/kg oral
Protocol: In order to confirm the antidepressant efficacy of bornyl acetate on the animal model of stress depression, an animal model of depression induced by chronic restrained stress (CRS) was prepared. Specifically, the animal model, 8-week-old male C57BL/6NTac mice after birth (Narabiotechnology, Korea; weight 22-24 g) had been stabilized for 1 week. A 50 ml conical tube (SPL Life sciences, Pocheon, Korea) was punched to make a hole, thereby making a restraint frame. The mice were put in the frame and restrained for 2 hours every day for 14 days. After restraint, the mice were allowed to freely ingest water and food in the home cage. Bornyl acetate (100 mg/kg) was administered orally 1 hour before induction of restraint stress every day. 14 days later, the mice were anesthetized, and 4% paraformaldehyde was perfused into the heart. Then, the mice were fixed, and the brain was excised. The excised brain was immersed in 4% paraformaldehyde and fixed at 4° C. for one more day. It was then changed to 30% sucrose, and the brain was stored at 4° C. for 3 days or more to prevent freeze damage. The brain was cut into a thickness of 30 μm using a cryocut microtome to prepare the frozen sections. […]

[1] = tested on: animal model of stress depression induced by chronic restrained stress (CRS); test: Tail suspension test (TST) in CRS-induced stress depression model; conditions: CRS+BA group, oral daily 1 hour before restraint, day 14, last 4 minutes of 6-minute test; dose not stated
Protocol: In order to confirm the antidepressant efficacy of bornyl acetate on the animal model of stress depression, an animal model of depression induced by chronic restrained stress (CRS) was prepared. Specifically, the animal model, 8-week-old male C57BL/6NTac mice after birth (Narabiotechnology, Korea; weight 22-24 g) had been stabilized for 1 week. A 50 ml conical tube (SPL Life sciences, Pocheon, Korea) was punched to make a hole, thereby making a restraint frame. The mice were put in the frame and restrained for 2 hours every day for 14 days. After restraint, the mice were allowed to freely ingest water and food in the home cage. On the 14th day after chronic restrained stress was induced, the tail tip of the mouse was fixed and hanged upside down on a horizontal bar (1 cm in diameter) installed at a height of about 50 cm from the floor, and then the time of immobility was measured. Measurements were made during the last 4 minutes of the 6-minute test period. Bornyl acetate (25, 50 and 100 mg/kg) of the present invention was dissolved in 0.1 M PBS, and the mixture was orally administered 1 hour before inducing restrained stress every day. Bornyl acetate was administered in a dose per individual of 100 μl.

Structure (SMILES): CC(=O)OC1CC2CCC1(C)C2(C)C (stereo not shown) [BA, bornyl acetate]
- expression of CD11b protein (CRS-induced increase) (CD11b protein; amygdala): significantly inhibited
- expression of CD11b protein (CRS-induced increase) (CD11b protein; hippocampus): significantly inhibited
- distribution of cells immunostained by c-Fos (c-Fos): consistent
- time of immobility, tail suspension test [1]: 91.4 s
